According to patent publication US10494357B2, “Tocotrienol derivatives, pharmaceutical composition and method of use in 5-lipoxygenase related diseases” (UNIVERSITÉ D'ANGERS, priority 2015, dated 2019):
Read-outs that look alike come from different tables or passages of the source.

Columns and labels:
HepaRG® cells = assay: Hepatotoxicity assay; assay type: cell-based; conditions: 48 h
Experimental: HepaRG® cells were seeded at a density of 2.6×10^4 cells/cm^2 in Williams' E medium supplemented with 2 mM glutamax, 100 U/mL penicillin, 100 μg/mL streptomycin, 10% Hyclone fetal calf serum, 5 μg/mL insulin, and […] hydrocortisone hemisuccinate. At confluence, after 2 weeks, HepaRG® cells were shifted to the same medium supplemented with 1.7% dimethyl sulfoxide for 2 additional weeks in order to obtain confluent differentiated cultures containing equal proportions of hepatocyte-like and progenitors/primitive biliary-like cell. These differentiated hepatic cell cultures were used for analytical assays.
Then, the cells were exposed to a tocotrienol derivative in Williams' E medium supplemented with 2% Hyclone fetal calf serum containing 0.2% dimethyl sulfoxide during 48 h.

[1] = system: 5-LO product formation in neutrophils; assay: 5-LO product formation in neutrophils; assay type: cell-based, human; conditions: for IC50: Homo sapiens, Neutrophil; for 5-LO product formation in neutrophils (A23187) residual activities [% vehicle control]: A23187 alone; for 5-LO product formation in neutrophils (AA + A23187) residual activities [% vehicle control]: A23187 plus 20 μM AA
Experimental: Freshly isolated neutrophils (1×10^7/ml) were pre-incubated with the test compounds for 15 min at 37° C. Then, 5-LO product formation was started by addition of 2.5 μM Ca^2+-ionophore A23187 alone or A23187 plus 20 μM arachidonic acid (AA). The reaction was stopped after 10 min at 37° C. with 1 ml of methanol. Major 5-LO metabolites (LTB4 and its all-trans isomers and 5-H(P)ETE) were extracted and analyzed by HPLC as described (Werz: Blood 2002, 99, 1044-1052). Cysteinyl-LTs C4, D4 and E4 and oxidation products of LTB4 were not determined.

human recombinant 5-LO = biological target: T1, human recombinant 5-LO (Homo sapiens, UniProt P09917); assay: Human recombinant 5-LO activity; assay type: biochemical
T1 construct: made in house; inferred to be the same preparation
T1 sequence (P09917 1-674): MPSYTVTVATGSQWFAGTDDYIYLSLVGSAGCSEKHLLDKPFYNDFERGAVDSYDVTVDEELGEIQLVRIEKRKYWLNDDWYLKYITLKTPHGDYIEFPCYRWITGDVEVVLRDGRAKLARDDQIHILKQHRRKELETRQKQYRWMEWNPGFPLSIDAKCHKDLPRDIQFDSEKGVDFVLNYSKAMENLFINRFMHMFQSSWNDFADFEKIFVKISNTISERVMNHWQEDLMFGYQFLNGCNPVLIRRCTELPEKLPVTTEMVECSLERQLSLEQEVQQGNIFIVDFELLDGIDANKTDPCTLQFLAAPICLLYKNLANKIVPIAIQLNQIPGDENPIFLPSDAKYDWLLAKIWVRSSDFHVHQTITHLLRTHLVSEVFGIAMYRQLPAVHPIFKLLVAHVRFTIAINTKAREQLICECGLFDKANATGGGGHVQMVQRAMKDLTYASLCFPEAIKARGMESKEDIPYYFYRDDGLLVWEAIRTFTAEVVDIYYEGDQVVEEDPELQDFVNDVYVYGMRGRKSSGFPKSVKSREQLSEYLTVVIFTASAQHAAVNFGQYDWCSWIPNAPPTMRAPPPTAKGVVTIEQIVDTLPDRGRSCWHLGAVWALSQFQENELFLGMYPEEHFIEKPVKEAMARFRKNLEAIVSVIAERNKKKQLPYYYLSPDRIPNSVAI
Experimental: Methods for measuring the 5-LO activity are well-known from the skilled artisan. An example of such a method is disclosed in the Examples.
Human recombinant 5-LO was pre-incubated with the test compounds for 10 min at 4° C. and pre-warmed for 30 s at 37° C. 5-LO product formation was initiated by addition of 2 mM CaCl2 and 20 μM arachidonic acid. After 10 min at 37° C., the reaction was terminated by addition of 1 ml ice-cold methanol.

TNF-α = TNF-α release from LPS-stimulated monocytes (ELISA); assay type: cell-based; conditions: LPS 10 ng/ml
Experimental: (§1) First, different concentrations of δ-amplexichromanol (0.1; 1 and 10 μM) were added to the stimulated monocytes.
(§2) Secondly, monocytes were stimulated with lipopolysaccharide (LPS, 10 ng/ml for 4-18 h) for inducing the formation of pro-inflammatory cytokines.
(§3) Finally, the resulting levels of proinflammatory cytokines were measured by ELISA. Dexamethasone (1 μM) was used as control.

IL-1β = IL-1β release from LPS-stimulated monocytes (ELISA); assay type: cell-based; conditions: LPS 10 ng/ml
Experimental: as §1, §2, §3

IL-8 = IL-8 release from LPS-stimulated monocytes (ELISA); assay type: cell-based; conditions: LPS 10 ng/ml
Experimental: as §1, §2, §3

LTC4 formation = assay: Zymosan-induced peritonitis in mice, LTC4 level in peritoneal exudate; assay type: in vivo; conditions: 10 mg/kg i.p. 30 min before zymosan, measured 30 min after zymosan injection
Experimental: Zymosan was used to trigger peritonitis in mice pre-treated with a-amplexichromanol or Zileuton, each at a dose of 10 mg/kg. The resulting LTC4 levels in the peritoneal exudate were measured 30 min after zymosan injection.
α-amplexichromanol (10 mg/kg) or vehicle (0.5 ml of 0.9% saline solution containing 2% DMSO) were given i.p. 30 min before zymosan i.p. injection (0.5 ml of a 2 mg/ml suspension in 0.9% w/v saline). Mice were killed by inhalation of CO2 at the indicated time points followed by a peritoneal lavage with 3 ml of cold PBS pH 7.4. Exudates were collected. After centrifugation of the exudates (18,000× g, 5 min, 4° C.), the amounts of cysteinyl-LTs were analyzed in the supernatant by enzyme immunoassay (Enzo Life Sciences GmbH, Lörrach, Germany) according to manufacturer's instructions.

[2] = human recombinant 5-LO, read-out: IC50 (nM) 5-LO activity

C/C(=C/CC/C(C)=C/CC/C(C)=C/CCC1(C)CCc2cc(O)c(C)c(C)c2O1)CO (centres unmarked) [Compound 33, 2-((3E,7E,11Z)-13-hydroxy-4,8,12-trimethyltrideca-3,7,11-trien-1-yl)-2,7,8-trimethylchroman-6-ol]
Number of cells (HepaRG® cells; 0.1 μM): 4363
Number of cells (HepaRG® cells; 1 μM): 4412
Number of cells (HepaRG® cells; 10 μM): 4610
IC50 [1]: 140 ± 21 nM
IC50 (human recombinant 5-LO; [2]): 120 ± 29 nM

C[C@@H]1C[C@H]2[C@@H]3CCC4=CC(=O)C=C[C@]4(C)[C@@]3(F)[C@@H](O)C[C@]2(C)[C@@]1(O)C(=O)CO [dexamethasone]
TNF-α release (%) (TNF-α; 1 μM): 42.2 ± 0.8%
TNF-α release (%) (TNF-α; 10 μM): 13.3 ± 2.6%
IL-1β release (%) (IL-1β; 1 μM): 68.7 ± 2.4%
IL-1β release (%) (IL-1β; 10 μM): 49.9 ± 4.8%
IL-8 release (%) (IL-8; 1 μM): 83.5 ± 3.2%
IL-8 release (%) (IL-8; 10 μM): 30.6 ± 1.5%

C/C(=C\CC/C(C)=C/CCC1(C)CCc2c(C)c(O)c(C)c(C)c2O1)CCC=C(CO)CO (centres unmarked) [Compound 1, 2-((4E,8E)-11-(6-hydroxy-2,5,7,8-tetramethylchroman-2-yl)-4,8-dimethylundeca-4,8-dien-1-ylidene)propane-1,3-diol]
Number of cells (HepaRG® cells; 0.1 μM): 4389
Number of cells (HepaRG® cells; 1 μM): 4705
Number of cells (HepaRG® cells; 10 μM): 4702
IC50 [1]: 19 ± 4 nM
IC50 (human recombinant 5-LO; [2]): 106 ± 29 nM
LTC4 level in the peritoneal exudate (LTC4 formation): the same than the LTC4 level obtained by Zileuton

CC(=O)N(O)C/C=C/c1cccc(Oc2ccccc2)c1 [BWA4C, N-RE)-3-(3-phenoxyphenye-prop-2-enyllacetohydroxamic acid, reference compound]
IC50 [1]: 41 ± 1 nM

C/C(=C\CC/C(C)=C/CCC1(C)CCc2cc(O)c(C)c(C)c2O1)CCC=C(CO)CO (centres unmarked) [Compound 34, 2-((4E,8E)-11-(6-hydroxy-2,7,8-trimethylchroman-2-yl)-4,8-dimethylundeca-4,8-dien-1-ylidene)propane-1,3-diol]
Number of cells (HepaRG® cells; 0.1 μM): 4212
Number of cells (HepaRG® cells; 1 μM): 4562
Number of cells (HepaRG® cells; 10 μM): 4677
IC50 [1]: 67 ± 54 nM
IC50 (human recombinant 5-LO; [2]): 110 nM

C/C(=C\CC/C(C)=C/CCC1(C)CCc2cc(O)cc(C)c2O1)CCC=C(CO)CO (centres unmarked) [Compound 26, 2-((4E,8E)-11-(6-hydroxy-2,8-dimethylchroman-2-yl)-4,8-dimethylundeca-4,8-dien-1-ylidene)propane-1,3-diol]
TNF-α release (%) (TNF-α; 1 μM): n.i.^a
5-LO product formation in neutrophils (A23187) residual activities [% vehicle control] ([1]; 0.1 μM): 17.4 ± 8.8 % vehicle control
5-LO product formation in neutrophils (AA + A23187) residual activities [% vehicle control] ([1]; 0.1 μM): n.i.^a
5-LO product formation in neutrophils (A23187) residual activities [% vehicle control] ([1]; 1 μM): 10.0 ± 2.8 % vehicle control
5-LO product formation in neutrophils (AA + A23187) residual activities [% vehicle control] ([1]; 1 μM): 15.4 ± 4.4 % vehicle control
5-LO product formation in neutrophils (A23187) residual activities [% vehicle control] ([1]; 10 μM): 0.0 ± 0.0 % vehicle control
5-LO product formation in neutrophils (AA + A23187) residual activities [% vehicle control] ([1]; 10 μM): 0.6 ± 0.6 % vehicle control
IC50 [1]: 419 ± 33 nM
IC50 (human recombinant 5-LO; [2]): 148 ± 35 nM
IL-1β release (%) (IL-1β; 1 μM): 86 ± 11%
IL-8 release (%) (IL-8; 1 μM): n.i.^a

C/C(=C\CC/C(C)=C/CCC1(C)CCc2c(C)c(O)cc(C)c2O1)CCC=C(CO)CO (centres unmarked) [Compound 9, 2-((4E,8E)-11-(6-hydroxy-2,5,8-trimethylchroman-2-yl)-4,8-dimethylundeca-4,8-dien-1-ylidene)propane-1,3-diol]
Number of cells (HepaRG® cells; 0.1 μM): 4429
Number of cells (HepaRG® cells; 1 μM): 4436
Number of cells (HepaRG® cells; 10 μM): 4785
IC50 [1]: 114 ± 35 nM
IC50 (human recombinant 5-LO): 91 ± 15 nM

CC(c1cc2ccccc2s1)N(O)C(N)=O (centres unmarked) [Zileuton, reference compound]
Number of cells (HepaRG® cells; 0.1 μM): 4313
Number of cells (HepaRG® cells; 1 μM): 4244
Number of cells (HepaRG® cells; 10 μM): 4554

C/C(=C/CC/C(C)=C/CC/C(C)=C/CCC1(C)CCc2cc(O)cc(C)c2O1)CO (centres unmarked) [Compound 23, 2-((3E,7E,11Z)-13-hydroxy-4,8,12-trimethyltrideca-3,7,11-trien-1-yl)-2,8-dimethylchroman-6-ol]
IC50 [1]: 220 ± 40 nM
IC50 (human recombinant 5-LO; [2]): 137 ± 29 nM
